Active and inactive are the calls of the source. The rule behind the calls is not given here.
System: CCRIS mutagenicity, Ames/micronucleus/aberration tests
Assay: CCRIS mutagenicity studies

For `C[C@@H]1Cc2c(Cl)cc(C(=O)NC(Cc3ccccc3)C(=O)O)c(O)c2C(=O)O1` (stereo partly specified), the mutagenic call (End Point: IN VITRO CHROMOSOMAL ABERRATIONS, Test System: BOVINE LYMPHOCYTES, Metabolic Activation: NONE) was “active; positive (structural changes)”, the mutagenic call (End Point: IN VIVO CHROMOSOMAL ABERRATIONS, Test System: SPLENOCYTES, Species: RAT, Strain/Sex: FISCHER 344/MALE, Route: ORAL (GAVAGE)) was “inactive; negative” and the mutagenic call (End Point: In vivo chromosomal aberrations, Test System: Bone marrow cells, Species: Mouse, Strain/Sex: Balb/C / Male, Route: Intraperitoneal) was “active; positive (structural changes)”. The mutagenic call (End Point: In vivo micronucleus, Test System: Bone marrow polychromatic erythrocytes, Species: Rat, Strain/Sex: Sprague-Dawley/Male, Route: Oral) was “active; positive. addition of inula crithmoides extract inhibited the response”, the mutagenic call (Test System: AMES SALMONELLA TYPHIMURIUM, Strain/Indicator: TA97, Metabolic Activation: HAMSTER, LIVER, S-9, AROCLOR 1254 (10 OR 30%), Method: PREINCUBATION) was “inactive; negative” and the mutagenic call (Test System: AMES SALMONELLA TYPHIMURIUM, Strain/Indicator: TA97, Metabolic Activation: HAMSTER, LIVER, S-9, AROCLOR 1254, Method: PREINCUBATION) was “inactive; negative”. The mutagenic call (Test System: AMES SALMONELLA TYPHIMURIUM, Strain/Indicator: TA97, Metabolic Activation: NONE, Method: PREINCUBATION) was “inactive; negative”, the mutagenic call (Test System: AMES SALMONELLA TYPHIMURIUM, Strain/Indicator: TA97, Metabolic Activation: RAT, LIVER, S-9, AROCLOR 1254 (10 OR 30%), Method: PREINCUBATION) was “inactive; negative” and the mutagenic call (Test System: AMES SALMONELLA TYPHIMURIUM, Strain/Indicator: TA97, Metabolic Activation: RAT, LIVER, S-9, AROCLOR 1254, Method: PREINCUBATION) was “inactive; negative”. For the same compound, the mutagenic call (Test System: AMES SALMONELLA TYPHIMURIUM, Strain/Indicator: TA97A, Metabolic Activation: NONE, Method: PREINCUBATION) was “inactive; negative”, the mutagenic call (Test System: AMES SALMONELLA TYPHIMURIUM, Strain/Indicator: TA97A, Metabolic Activation: RAT LIVER S-9, Method: PREINCUBATION) was “inactive; negative” and the mutagenic call (Test System: AMES SALMONELLA TYPHIMURIUM, Strain/Indicator: TA98, Metabolic Activation: HAMSTER, LIVER, S-9, AROCLOR 1254 (10 OR 30%), Method: PREINCUBATION) was “inactive; negative”. For the same compound, the mutagenic call (Test System: AMES SALMONELLA TYPHIMURIUM, Strain/Indicator: TA98, Metabolic Activation: HAMSTER, LIVER, S-9, AROCLOR 1254, Method: PREINCUBATION) was “inactive; negative”, the mutagenic call (Test System: AMES SALMONELLA TYPHIMURIUM, Strain/Indicator: TA98, Metabolic Activation: HUMAN HEPG2 CELL S-9, Method: PREINCUBATION) was “inactive; negative” and the mutagenic call (Test System: AMES SALMONELLA TYPHIMURIUM, Strain/Indicator: TA98, Metabolic Activation: MOUSE KIDNEY S-9, NADP OR ARACHIDONIC ACID (10%), Method: MICROMETHOD) was “active; positive”. For the same compound, the mutagenic call (Test System: AMES SALMONELLA TYPHIMURIUM, Strain/Indicator: TA98, Metabolic Activation: MOUSE LIVER S-9 (10%), Method: MICROMETHOD) was “inactive; negative”, the mutagenic call (Test System: AMES SALMONELLA TYPHIMURIUM, Strain/Indicator: TA98, Metabolic Activation: NONE, Method: PREINCUBATION) was “inactive; negative” and the mutagenic call (Test System: AMES SALMONELLA TYPHIMURIUM, Strain/Indicator: TA98, Metabolic Activation: NONE, Method: STANDARD PLATE) was “inactive; negative”. The mutagenic call (Test System: AMES SALMONELLA TYPHIMURIUM, Strain/Indicator: TA98, Metabolic Activation: RAT LIVER S-9, AROCLOR 1254 (10%), Method: MICROMETHOD) was “inactive; negative”, the mutagenic call (Test System: AMES SALMONELLA TYPHIMURIUM, Strain/Indicator: TA98, Metabolic Activation: RAT LIVER S-9, Method: PREINCUBATION) was “inactive; negative” and the mutagenic call (Test System: AMES SALMONELLA TYPHIMURIUM, Strain/Indicator: TA98, Metabolic Activation: RAT, LIVER, S-9, AROCLOR 1254 (10 OR 30%), Method: PREINCUBATION) was “inactive; negative”. For the same compound, the mutagenic call (Test System: AMES SALMONELLA TYPHIMURIUM, Strain/Indicator: TA98, Metabolic Activation: RAT, LIVER, S-9, AROCLOR 1254, Method: PREINCUBATION) was “inactive; negative”, the mutagenic call (Test System: AMES SALMONELLA TYPHIMURIUM, Strain/Indicator: TA98, Metabolic Activation: RAT, LIVER, S-9, AROCLOR 1254, Method: STANDARD PLATE) was “inactive; negative” and the mutagenic call (Test System: AMES SALMONELLA TYPHIMURIUM, Strain/Indicator: TA100, Metabolic Activation: HAMSTER, LIVER, S-9, AROCLOR 1254 (10 OR 30%), Method: PREINCUBATION) was “inactive; negative”. For the same compound, the mutagenic call (Test System: AMES SALMONELLA TYPHIMURIUM, Strain/Indicator: TA100, Metabolic Activation: HAMSTER, LIVER, S-9, AROCLOR 1254, Method: PREINCUBATION) was “inactive; negative”, the mutagenic call (Test System: AMES SALMONELLA TYPHIMURIUM, Strain/Indicator: TA100, Metabolic Activation: HUMAN HEPG2 CELL S-9, Method: PREINCUBATION) was “inactive; negative” and the mutagenic call (Test System: AMES SALMONELLA TYPHIMURIUM, Strain/Indicator: TA100, Metabolic Activation: NONE, Method: STANDARD PLATE) was “inactive; negative”. For the same compound, the mutagenic call (Test System: AMES SALMONELLA TYPHIMURIUM, Strain/Indicator: TA100, Metabolic Activation: RAT LIVER S-9, Method: PREINCUBATION) was “inactive; negative”, the mutagenic call (Test System: AMES SALMONELLA TYPHIMURIUM, Strain/Indicator: TA100, Metabolic Activation: RAT, LIVER, MICROSOMES, PHENOBARBITAL, Method: STANDARD PLATE) was “active; positive” and the mutagenic call (Test System: AMES SALMONELLA TYPHIMURIUM, Strain/Indicator: TA100, Metabolic Activation: RAT, LIVER, S-9, AROCLOR 1254 (10 OR 30%), Method: PREINCUBATION) was “inactive; negative”. For the same compound, the mutagenic call (Test System: AMES SALMONELLA TYPHIMURIUM, Strain/Indicator: TA100, Metabolic Activation: RAT, LIVER, S-9, AROCLOR 1254, Method: PREINCUBATION) was “inactive; negative”, the mutagenic call (Test System: AMES SALMONELLA TYPHIMURIUM, Strain/Indicator: TA100, Metabolic Activation: RAT, LIVER, S-9, AROCLOR 1254, Method: STANDARD PLATE) was “inactive; negative” and the mutagenic call (Test System: AMES SALMONELLA TYPHIMURIUM, Strain/Indicator: TA100, Metabolic Activation: RAT, LIVER, S-9, PHENOBARBITAL, Method: PREINCUBATION) was “inactive; negative”. For the same compound, the mutagenic call (Test System: AMES SALMONELLA TYPHIMURIUM, Strain/Indicator: TA102, Metabolic Activation: NONE, Method: PREINCUBATION) was “inactive; negative”, the mutagenic call (Test System: AMES SALMONELLA TYPHIMURIUM, Strain/Indicator: TA102, Metabolic Activation: NONE, Method: STANDARD PLATE) was “inactive; negative” and the mutagenic call (Test System: AMES SALMONELLA TYPHIMURIUM, Strain/Indicator: TA102, Metabolic Activation: RAT LIVER S-9, Method: PREINCUBATION) was “inactive; negative”.

From PubChem BioAssay AID1259407 (Chemical Carcinogenesis Research Information System (CCRIS), 2018)
